Source: patent US20220008402A1, “INCREASED E-CADHERIN EXPRESSION OR ACTIVITY FOR THE TREATMENT OF INFLAMMATORY DISEASES” (The Cleveland Clinic Foundation, priority 2020, published 2022)
“Also recorded” adds a separate entry of the source.

Legend:
Type in all cases: cell-based, human
[1] = test system: HT-29 cF8 cell monolayers; experiment: Epithelial barrier permeability in vitro (TEER, FITC-dextran flux), steady state; conditions: 10 μM
Protocol: (§1) FIG. 1: E-cadherin-enhancing drugs decrease ionic permeability of model colonic epithelial cell monolayers. Confluent T84 (A), HT-29cF8 (B) and SK-0015 (C) cell monolayers were treated for indicated times with either vehicle, E-cadherin upregulator (ECU, 10 μM), or ML327 (10 μM). Transepithelial electrical resistance (TEER) of the cell monolayers was measured before and during the drug treatment. Data is presented as mean ±SE (n=3); *P<0.05.
(§2) FIG. 2: E-cadherin-enhancing drugs decrease colonic epithelial permeability to large molecules. Confluent T84 (A), HT-29cF8 (B) and SK-C015 (C) cell monolayers were treated with either vehicle, ECU, or ML327, as described in the FIG. 1 legend. Trans-monolayer flux of FITC-dextran was determined at the end of the drug treatment. Data is presented as mean ±SE (n=3); **P<0.05 ***P<0.01.
(§3) Transepithelial electrical resistance (TEER) of cultured T84, HT-29 and SK-C015 intestinal epithelial cell monolayers was measured using an EVOMX voltohmmeter (World Precision Instruments, Sarasota, Fla.). Cells were plated on collagen-coated transwell filters (pore size 3 μm, Thermo-Fisher). The resistance of cell-free collagen-coated filters was subtracted from each experimental point. An in vitro dextran flux assay was performed by a following commonly-used protocol. Intestinal epithelial cell monolayers growing on transwell filters were apically exposed to 1 mg/ml of FITC-labeled dextran (4,000 Da) in HEPES-buffered Hanks balanced salt solution (HBSS). After 120 min of incubation, HBSS samples were collected from the lower chamber, and FITC fluorescence intensity was measured using a Victor^3 V plate reader (Perkin Elmer, Waltham, Mass.) with excitation and emission wavelengths 485 and 544 nm, respectively. After subtracting the fluorescence of dextran-free HBSS the amount of FITC dextran translocated across the epithelial cell monolayer was calculated based on a calibration curve using Prism 5 software (GraphPad, La Jolla, Calif.).
(§4) One set of experiments examined the effects of E-cadherin upregulator (ECU) and ML327 on the barrier properties of normal model intestinal epithelial cell monolayers. Three different human colonic epithelial cell lines, namely, T84, SK-0015 and HT-29 cF8 cells, were used. Cells were plated on collagen-coated transwell filters and allowed to reach confluency and differentiate for 5-7 days after plating. Thereafter, cell monolayers were exposed to either ECU (10 μM), ML327 (10 μM) or vehicle (DMSO). Transepithelial electrical resistance (TEER) was measured before and at different times after addition of E-cadherin-enhancing drugs. A transepithelial flux of FITC-dextran was examined at the end of the drug exposure to evaluate epithelial permeability to large uncharged molecules.

SK-0015 cell monolayers = experiment: as above; conditions: 10 μM
Protocol: as §1, §2, §3, §4

T84 cell monolayers [2] = experiment: as above; conditions: 10 μM
Protocol: as §1, §2, §3, §4

T84 cell monolayers [3] = experiment: Cytokine (TNFα/IFNγ)-induced disruption of the epithelial barrier (TEER, FITC-dextran flux); conditions: 10 μM pretreatment 24 h, then TNFα 10 ng/ml + IFNγ 50 ng/ml, 48 h
Protocol: (§5) Confluent T84 cell monolayers were pretreated with either vehicle, or ECU (10 μM) for 24 h. Afterwards, cells were exposed to a combination of TNFα (10 ng/ml) and IFNγ (50 ng/ml) with and without ECU. (A) TEER was measured at the indicated times. (B) FITC-dextran flux was examined after 48 h incubation with cytokines. Data is presented as mean ±SE (n=3); ***P<0.001.
as §5, with “ML327” for “ECU”, “hours.” for “h.”, “ML327.” for “ECU.”, “(n=3); **P<0.05,” for “(n=3);”
as §3
A combination of two cytokines were selected: tumor necrosis factor alpha (TNFα, 10 ng/ml) and interferon-gamma (IFNγ, 50 ng/ml), which are known to compromise barrier integrity and trigger apical junction disassembly in cultured epithelial cell monolayers and intestinal mucosa in mice. Indeed, 48 hour incubation of well-differentiated T84 cell monolayers with TNFα and IFNγ caused a dramatic decrease in TEER (FIGS. 3A, 4A) and increase in transepithelial dextran flux (FIGS. 3B, 4B), which indicates the increase in barrier permeability. […] Next, it was examined if ECU protects epithelial adherens junctions (AJ) and tight junctions (TJ) from cytokine-induced disassembly. Immunofluorescence labeling of a specific AJ marker, E-cadherin, and a TJ marker, ZO-1, was used to visualize structure of different junctional complexes. […]

T84 cell monolayers [4] = experiment: Wound healing assay; conditions: 10 μM pretreatment 24 h, migration 24-48 hours
Protocol: FIG. 8: E-cadherin-enhancing drug promote collective migration of intestinal epithelial cells. Confluent T84 cell monolayers were pretreated with either vehicle, ECU (10 μM) or ML327 (10 μM) for 24 hours. Afterwards, cell monolayers were wounded and allowed to migrate into wound area in the presence of the drugs. Cell monolayers were photographed and wound closure was calculated at the indicated times. Data is presented as mean ±SE (n=3); **P<0.05, ***P<0.01.
Confluent epithelial cell monolayers were mechanically wounded by making a thin scratch wound with a 200 μl pipette tip. The bottom of the well was marked to define the position of the wound and the monolayers were supplied with fresh cell culture medium. The images of a cell-free area at the marked region were acquired at the indicated times after wounding using an inverted bright field microscope equipped with a camera. The percentage of wound closure was calculated using an Image J software (NIH, Bethesda, Md.).
Finally, the effects of E-cadherin-enhancing drugs on epithelial restitution (wound healing) were examined. This is an important question given the fact that epithelial wounds are frequently formed in inflamed intestinal mucosa of IBD patients and wound healing is necessary to restore the integrity of the gut barrier and to achieve remission of chronic inflammatory diseases. […]

[5] = at the end of the drug exposure
[6] = rapid (within 24 h) and sustained (up to 96 h), vs vehicle (DMSO)

SMILES: O=C(NCCCCc1ccncc1)c1cc(-c2ccco2)on1 [ECU]
- Transepithelial flux of FITC-dextran [1, 5]: significantly inhibited FITC-dextran flux
- Transepithelial electrical resistance (TEER) ([1]; up to 96 h, vs vehicle (DMSO)): increase in TEER
- Transepithelial flux of FITC-dextran (SK-0015 cell monolayers; [5]): significantly inhibited FITC-dextran flux
- Transepithelial electrical resistance (TEER) (SK-0015 cell monolayers; [6]): increase in TEER
- Transepithelial flux of FITC-dextran (T84 cell monolayers [2]; at the end of the drug exposure, T84): significantly inhibited FITC-dextran flux
- Transepithelial electrical resistance (TEER) (T84 cell monolayers [2]; [6]): increase in TEER
- Cytokine-induced decrease in TEER (T84 cell monolayers [3]): prevents cytokine-induced disruption; also recorded: markedly attenuated
- Cytokine-induced increase in transepithelial FITC-dextran flux (T84 cell monolayers [3]): prevents cytokine-induced disruption; also recorded: markedly attenuated
- Cell migration during wound healing (wound closure) (T84 cell monolayers [4]): significantly increased migration
